For five compounds, drug sensitivity score results are on record in the supplement of paper PMC4862054.

Test in all cases: drug sensitivity score (DSS), CellTox Green (DSS (AUC-based score)); higher = stronger drug effect (viability inhibition or cytotoxicity); extreme values may be limits of the assay
Holding throughout (conditions): incubation time: 72 h

Assay [1] concerns DU-4475. The method in brief: (§1)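 Breast cancer cells were seeded into 384-well plates containing compound at 5 concentrations in 10-fold steps over a compound-specific 10,000-fold range and incubated 72 h. After CellTox Green and CellTiter-Glo readings, each plate was normalised to 0.1 % DMSO and a positive kill control. The drug sensitivity score rests on the area under the fitted dose-response curve.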

Assay [2] concerns HCC1937. The method in brief: as §1
In assay [3] the test system is BT-474. The essentials:
as §1

In assay [4] the test system is MDA-MB-468. The method in brief:
as §1

For assay [5], the system named is MDA-MB-231. The essentials:
as §1

Assay [6] relates to CAL-148. The essentials:
as §1

Assay [7] relates to Hs578T. The method in brief: as §1
Assay [8] has as its system MDA-MB-453. The essentials: as §1
In assay [9] the test system is CAL-51. The method in brief:
as §1

Assay [10] concerns MDA-MB-436. The essentials:
as §1

Molecules are shown by their SMILES.

Turning to `CC(=O)O[C@H]1C(=O)[C@@]2(C)[C@H]([C@H](OC(=O)c3ccccc3)[C@]3(O)C[C@H](OC(=O)[C@H](O)[C@@H](NC(=O)c4ccccc4)c4ccccc4)C(C)=C1C3(C)C)[C@]1(OC(C)=O)CO[C@@H]1C[C@@H]2O` [Paclitaxel], the drug sensitivity score came out at 0 in [1]; 0 in assay [2]; 12.7 in assay [3]; 26.9 in assay [4]; 25.5 in assay [5]; 7.75 in assay [6]. The drug sensitivity score in [7] came to 20.3; in [8], 0; in assay [9], 22.7; in [10], 7.09.
For `O=C(c1ccc(OCCN2CCCCC2)cc1)c1c(-c2ccc(O)cc2)sc2cc(O)ccc12` [Raloxifene], the drug sensitivity score in assay [1], in assay [2], in assay [3], in assay [4], in [5] and in assay [6] was 0 throughout. Moreover, the drug sensitivity score was 2.23 in assay [7], 0 in [8], 0 in assay [9] and 0 in [10].
Turning to `C[C@@H]1CCN(C(=O)CC#N)C[C@@H]1N(C)c1ncnc2[nH]ccc12` [Tofacitinib], the drug sensitivity score in assay [1], in assay [2], in assay [3], in assay [4], in [5] and in [6] was 0 throughout. Also, the drug sensitivity score in assay [7], in assay [8], in [9] and in assay [10] was 0 each time.
Turning to `CCCC(CCC)C(=O)O` [Valproic acid], the drug sensitivity score in [1], in assay [2], in assay [3], in assay [4], in assay [5] and in assay [6] was 0 each time. Moreover, the drug sensitivity score in [7], in [8], in [9] and in assay [10] was 0 in each case.
In the case of `FC(F)c1nc2ccccc2n1-c1nc(N2CCOCC2)nc(N2CCOCC2)n1` [ZSTK474], the drug sensitivity score in [1] came out at 0; in [2], 0; in [3], 0.64; in [4], 0; in assay [5] it was 0; in [6] it was 0. The drug sensitivity score in assay [7], in assay [8], in assay [9] and in assay [10] was 0 each time.
